The target of one series is T1, mouse Y4 receptor (Mus musculus, UniProt Q61041).
T1 construct: expressed in transfected cells; host or cells: HEK293
Description: Y4 receptor binding assay (125I-PP competition). The following applies: membranes of HEK293 cells overexpressing mouse Y4 receptor; competition with 125I-PP (100 pM); 90 min, 4°C; mean ± SEM of three to five separate experiments; read-out: IC50 (half maximal inhibitory concentration), Y4 receptor binding affinity. On the procedure: Transfected HEK293 cells overexpressing the mouse Y4 receptor were prepared and binding assays performed as previously described ([29]). Isolated cell membranes (protein concentration, 1 to 2 µg/mL) were incubated for 90 minutes in siliconized polypropylene tubes together with ^125I-PP [1 kBq (100 pM)] and a dose response of unlabeled competing peptides at 4°C in binding buffer [20 mM HEPES (pH 7.4), 1 mM MgCl2, 5 mM CaCl2, 0.1% bovine serum albumin, and protease inhibitors (0.2 mM phenylmethylsulfonyl fluoride, 0.1 mM Diprotin A, and 10 µM phosphoramidon ( all from Sigma-Aldrich)] in a final assay volume of 0.5 mL. PP was iodinated as previously described ([8]) using ^125I from GE Healthcare Life Sciences (Amersham, UK). Pelleted membranes were washed with 5 mL ice-cold assay buffer, and the membranes were centrifuged at 15,874g for 3 minutes at 4°C, as described, to separate bound and free label. Bound radioactivity was measured using a γ-counter (NE 1600; NE Technology Ltd, Reading, UK). Specific binding was calculated as the difference between the amount of ^125I-PP bound in the absence (total binding) and presence of 5 μM unlabeled competing peptide (nonsaturable binding). All curves were performed with points in triplicate. Half maximal inhibitory concentration values were calculated using Prism, version 5.01 (GraphPad Software Inc., San Diego, CA) using a three-parameter logistic equation for the nonlinear regression fit: Y = bottom + (top − bottom)/1 + 10^(LogEC50 − X), where EC50 is the half maximal effective concentration.

The subject of series [1] is food intake in C57/BL6 mice. Kind of series: Acute feeding studies (food intake) in overnight-fasted mice. It counts as in vivo, mouse. Here is the method:
All animal procedures were approved by the British Home Office, under the United Kingdom Animal (Scientific Procedures) Act 1986 (project license, 70/6402). Adult male C57/BL6 mice (Harlan, Wyton, UK) weighing 20 to 25 g were maintained in individual cages under controlled temperature (21°C to 23°C) and light (12-hour light/dark cycle, with lights on at 7:00 AM). The mice had ad libitum access to water and normal chow RM1 (Special Diet Services, Devon, UK), unless stated otherwise. For acclimatization, the mice were regularly handled and given 2 sham subcutaneous (SC) and/or intraperitoneal (IP) injections of saline. Before each feeding study, the mice were fasted overnight, and the injections were performed during the early light phase (8:00 to 10:00 AM). The mice were stratified by body weight. To investigate the anorectic effects of DPPIV-resistant analogs, the mice were stratified into treatment groups and administered a SC injection (maximum volume, 100 µL) of vehicle, PP, PP3-36, PP2-36, or PP-Ala0 (n = […]). Food intake was measured at 1, 2, 4, and 8 hours after injection to compare the peptides with short half-lives (PP and its endogenous degradation product, PP3-36) and, in a separate experiment, at 24 hours after injection for peptides with modifications (PP-Ala0 and PP2-36, using PP as the comparator). A PP analog with global modifications for enzyme resistance (PP-x) was also investigated and administered as a SC injection (maximum volume, 100 µL) at a high and low dose (n = 9). Food intake was measured at 1, 2, 4, and 8 hours after injection. […] This dose of phosphoramidon was sufficient to inhibit NEP activity ([30]). Food intake was measured at 1, 2, 4, 8, 24, and 48 hours after injection.

The conditions of series [2]: human, in vivo; cited from earlier work. Here is the method:
Administration of PP to humans is not associated with adverse side effects such as nausea, unlike GLP-1 analogs and, as such, is potentially a useful agent for the regulation of food intake and the treatment of obesity. PP is a relatively small peptide (4.2 kDa) and is therefore susceptible to a number of degradative enzymes and other eliminating mechanisms. PP consequently has a short circulating half-life of approximately 7 minutes in humans ([6]). This short half-life limits the use of native PP as a practical obesity treatment. To the best of our knowledge, the mechanisms for the degradati ...

A further series is described as follows: in vivo. The following applies: for level at time molar at 1.5 h: male, C57BL/6, mouse, plasma level of PP at 90 minutes. Further details: species or system mouse. Here is the method: The mice were divided into four treatment groups according to body weight. A protocol similar to that used for the phosphoramidon feeding study was used, with an IP injection, followed by a SC injection 15 minutes later (maximum volume, 50 µL for each injection) of phosphoramidon (0, 7, 20, and 60 mg/kg IP), followed by PP (150 nmol/kg SC in saline; n = 4 to 6; […]). […] Additional mice (n = 2) underwent overnight fasting and were culled at 0 minutes after injection of the control substances (saline SC and vehicle IP) for measurement of the baseline levels of circulating PP. The blood was immediately removed via cardiac puncture and centrifuged at 6000 rpm (Sigma 3K18; 12348 rotor; Sigma-Aldrich) for 10 minutes. The plasma was stored at −20°C until analysis. The plasma samples were assayed using an established in-house PP RIA ([8]). The anti-PP antibody was elevated in rabbit against human PP and recognized PP (and other truncated forms) but not in other PP-fold peptides or gastrointestinal peptides. ^125I-PP was prepared using the iodogen method and purified using HPLC. The assay was performed in duplicate in a total volume of 700 µL of 0.06 M phosphate buffer (pH 7.35) containing 0.3% bovine serum albumin. The samples were incubated for 3 days at 4°C before separation of free and antibody-bound ^125I-PP using dextran-coated charcoal. The sensitivity was ≤5 fmol/tube. The intra-assay coefficient of variation was 6%.

These results are taken from PMC5460925, “Degradation Paradigm of the Gut Hormone, Pancreatic Polypeptide, by Hepatic and Renal Peptidases” (Endocrinology, 2017).

The structures appear in SMILES notation.

T1 sequence (Q61041 whole entry): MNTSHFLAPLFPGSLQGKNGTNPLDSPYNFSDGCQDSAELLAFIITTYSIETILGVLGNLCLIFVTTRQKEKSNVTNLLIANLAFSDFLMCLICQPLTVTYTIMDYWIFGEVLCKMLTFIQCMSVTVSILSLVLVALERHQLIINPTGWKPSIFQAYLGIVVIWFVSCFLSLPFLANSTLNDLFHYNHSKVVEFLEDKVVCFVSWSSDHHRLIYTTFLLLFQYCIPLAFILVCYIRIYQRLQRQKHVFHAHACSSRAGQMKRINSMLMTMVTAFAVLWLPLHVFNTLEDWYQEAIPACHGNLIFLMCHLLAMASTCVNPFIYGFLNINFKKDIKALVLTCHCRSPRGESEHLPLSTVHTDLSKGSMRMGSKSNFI

In the case of `CC[C@H](C)[C@H](NC(=O)[C@H](Cc1ccc(O)cc1)NC(=O)[C@H](CCCNC(=N)N)NC(=O)[C@H](CCCNC(=N)N)NC(=O)[C@H](CC(C)C)NC(=O)[C@H](CC(=O)O)NC(=O)[C@H](C)NC(=O)[C@H](C)NC(=O)[C@H](Cc1ccc(O)cc1)NC(=O)[C@H](CCC(N)=O)NC(=O)[C@H](C)NC(=O)[C@H](CCSC)NC(=O)[C@H](CCC(N)=O)NC(=O)[C@H](CCC(=O)O)NC(=O)[C@@H]1CCCN1C(=O)[C@@H](NC(=O)[C@H](C)NC(=O)[C@H](CC(N)=O)NC(=O)[C@H](CC(=O)O)NC(=O)CNC(=O)[C@@H]1CCCN1C(=O)[C@H](Cc1ccc(O)cc1)NC(=O)[C@@H](NC(=O)[C@@H]1CCCN1C(=O)[C@H](CCC(=O)O)NC(=O)[C@H](CC(C)C)NC(=O)[C@@H]1CCCN1C(=O)[C@H](C)N)C(C)C)[C@@H](C)O)C(=O)N[C@@H](CC(N)=O)C(=O)N[C@@H](CCSC)C(=O)N[C@@H](CC(C)C)C(=O)N[C@H](C(=O)N[C@@H](CCCNC(=N)N)C(=O)N1CCC[C@H]1C(=O)N[C@@H](CCCNC(=N)N)C(=O)N[C@@H](Cc1ccc(O)cc1)C(N)=O)[C@@H](C)O` [PP, Pancreatic polypeptide], the IC50 at mouse Y4 receptor amounted to 0.26 ± 0.04 nM. In series [1] (25 nmol/kg SC, overnight-fasted C57BL/6 mice, n = 9, mean ± SEM), the “cumulative food intake at 8 hours (0- to 8-hour interval), low dose” value is recorded as 2.36 ± 0.18 g. In series [1] (150 nmol/kg SC, overnight-fasted C57/BL6 mice, 0 to 24 hours, n = 7), the “inhibition of food intake over 24 hours vs saline” value is “did not”. Also, in series [1] (150 nmol/kg SC, overnight-fasted C57/BL6 mice, n = 7, mean ± SEM), the “cumulative food intake 0 to 8 hours” value is listed as 0.93 ± 0.10 g. Besides, the “cumulative food intake at 48 hours, PP alone” value in series [1] (PP 150 nmol/kg SC after vehicle IP, phosphoramidon study, fasted mice, mean ± SEM) is recorded as 6.52 ± 0.14 g. Also, the “food intake at 4 hours, PP alone” value in series [1] (PP 150 nmol/kg SC, sitagliptin study, fasted mice, mean ± SEM) is recorded as 0.91 ± 0.04 g. Moreover, in series [2], the circulating half-life entry is recorded as “approximately 7 minutes”. Besides, the level at time molar at 1.5 h in “in vivo” (sc, 150 nmol/kg, PP alone) is 1.92 ± 0.134 nM; in the series “in vivo” (sc, with phosphoramidon 7 mg/kg), 5.46 ± 0.807 nM; in the series “in vivo” (sc, with phosphoramidon 20 mg/kg), 5.3 ± 0.461 nM; in “in vivo” (sc, with phosphoramidon 60 mg/kg) it was 5.53 ± 0.348 nM. Moreover, the “plasma levels of PP at 45 minutes, alone vs combined with any dose of phosphoramidon” value in the series “in vivo” (mouse) is “did not differ significantly”. For the same compound, in the series “in vivo” (mouse, sc), the “decrease of plasma level (peptide cleared) between 45 and 90 minutes after injection” value was roughly 80%. Besides, the level at time molar at 0.5 h in “in vivo” (mouse, sc, 100 nmol/kg, plasma peptide level at 30 minutes after injection) worked out at 8.74 ± 0.744 nM. For the same compound, in “in vivo” (mouse, sc, 100 nmol/kg, plasma peptide level at 120 minutes after injection), the level at time molar at 2 h was determined as 2.11 ± 0.224 nM.
